Reference: patent publication US10501454B2, “Monocyclic β-lactam-siderophore conjugate, and preparation method and use thereof” (Shanghai Institute of Materia Medica, Chinese Academy of …, priority 2016, dated 2019)

Legend:
[1] = tested on: Escherichia coli ATCC 35218; assay: MIC, broth microdilution, normal MH medium; type: cell-based; conditions: quality control strain
Procedure: (§1) Strain for quality control: Escherichia coli ATCC35218, purchased from National Center of Clinical Laboratory.
(§2) Medium: MH liquid medium (OXOID).
(§3) Culture condition: cells were incubated at 35-37° C. for 16-18 h.
(§4) The broth microdilution method recommended by Clinical and Laboratory Standards Institute (CLSI), Performance Standards for Antimicrobial Susceptibility Testing; Twenty-Third Informational Supplement, M02-All, M07-A9 and M11-A8, 2013 was used to determine the MIC value of each test sample against each test strain in the normal MH medium and iron-deficient MH medium.
(§5) After diluting each sample to different concentrations with normal MH medium, 100 μl of each test sample solution at different concentrations was separately aspirated onto a 96-well sterile polystyrene plate. Drug solutions were added to the 1st to 10th well with the final concentrations of 16, 8, 4, 2, 1, 0.5, 0.25, 0.125, 0.06, and 0.03 mg/L in each well, respectively. The 11th well, as a blank control, was not added with drugs and bacteria. The 12th well, as a bacterial growth control, was added with bacteria but no drug.
(§6) The test bacterial liquid was adjusted to a bacterial suspension of 0.5 Mcfarland standard with physiological saline, and diluted with MH broth at 1:100, and then added to the drug solution so that a final concentration of the bacterial liquid was approximately 10^4 CFU/ml; 100 μl of the bacterial liquid was further added to each of the above wells (the total volume in each well is 200 μl), which was sealed and placed in a 35-37° C. incubator for 18-20 h for testing the result. The OD600 value was measured by a microplate reader, Minimal Inhibitory Concentration (MIC) of a drug is the lowest concentration of the drug which prevents growth of bacteria in the wells. 1.2.2 MIC in iron-deficient MH medium

[2] = tested on: Pseudomonas aeruginosa (4 strains); assay: MIC, broth microdilution, iron-deficient MH medium; type: cell-based; conditions: iron-deficient MH medium (16 mg/L 2,2'-bipyridine); multidrug-resistant clinical isolates (integrator I, IMP4)
Procedure: (§7) Supplier of the strains: all of the above strains were provided by Sichuan Primed Shines Bio-tech Co., Ltd. A single colony was isolated by streaking on agar plates for each strain prior to the experiment, and the cells freshly cultured at 37° C. overnight were appropriately diluted for the experiment.
as §2, §3, §4
(§8) BPL was added to the normal MH medium to obtain a final concentration of 16 mg/L; According to the method in Section 1.2.1, 100 μl of each test sample solution at different concentrations was aspirated to the 1st to 10th well in a 96-well sterile polystyrene plate to obtain the final drug concentrations of 16, 8, 4, 2, 1, 0.5, 0.25, 0.125, 0.06, and 0.03 mg/L, respectively. Then, 100 μl of the test bacterial liquid was added to each well (200 μl per well), and the final concentration of the bacterial liquid was approximately 10^4 CFU/ml. After sealing, it was placed in a 35-37° C. incubator for 18-20 hours for testing the result. The OD600 value was measured by a microplate reader, Minimal Inhibitory Concentration (MIC) of a drug is the lowest concentration of the drug which prevents growth of bacteria in the wells.

[3] = tested on: Klebsiella pneumoniae (4 strains); assay: MIC, broth microdilution, iron-deficient MH medium; type: cell-based; conditions: iron-deficient MH medium (16 mg/L 2,2'-bipyridine); multi-drug resistant clinical isolates (KPC2)
Procedure: as §7, §2, §3, §4, §8

[4] = tested on: Escherichia coli (4 strains); assay: MIC, broth microdilution, iron-deficient MH medium; type: cell-based; conditions: iron-deficient MH medium (16 mg/L 2,2'-bipyridine); clinical isolates (ESBLs)
Procedure: as §7, §2, §3, §4, §8

[5] = tested on: Acinetobacter baumannii (4 strains); assay: MIC, broth microdilution, iron-deficient MH medium; type: cell-based; conditions: iron-deficient MH medium (16 mg/L 2,2'-bipyridine); multidrug-resistant clinical isolates (integron I, OXA23)
Procedure: as §7, §2, §3, §4, §8

[6] = tested on: Klebsiella pneumoniae (4 strains); assay: MIC, broth microdilution, normal MH medium; type: cell-based; conditions: multi-drug resistant clinical isolates (KPC2)
Procedure: as §7, §2, §3, §4, §5
The OD600 value was measured by a microplate reader, Minimal Inhibitory Concentration (MIC) of a drug is the lowest concentration of the drug which prevents growth of bacteria in the wells. 1.2.2 MIC in iron-deficient MH medium

[7] = tested on: Escherichia coli ATCC 35218; assay: MIC, broth microdilution, iron-deficient MH medium; type: cell-based; conditions: iron-deficient MH medium (16 mg/L 2,2'-bipyridine); quality control strain
Procedure: as §1, §2, §3, §4, §8

[8] = tested on: Pseudomonas aeruginosa (4 strains); assay: MIC, broth microdilution, normal MH medium; type: cell-based; conditions: multidrug-resistant clinical isolates (integrator I, IMP4)
Procedure: as §7, §2, §3, §4, §5, §6

[9] = tested on: Escherichia coli (4 strains); assay: MIC, broth microdilution, normal MH medium; type: cell-based; conditions: clinical isolates (ESBLs)
Procedure: as §7, §2, §3, §4, §5, §6

[10] = tested on: Acinetobacter baumannii (4 strains); assay: MIC, broth microdilution, normal MH medium; type: cell-based; conditions: normal MH medium; multidrug-resistant clinical isolates (integron I, OXA23)
Procedure: as §7, §2, §3, §4, §5, §6

[11] = tested on: Escherichia coli ECO-14-4 (ESBLs); assay: In vivo efficacy in mice systemically infected with Escherichia coli ECO-14-4 (ESBLs); conditions: Kunming mice, intraperitoneal infection, drug s.c. 0.5 h and 4 h after infection, deaths over 7 days, Bliss method
Procedure: 3.1 Test strains: Clinically isolated pathogenic Escherichia coli ECO-14-4 (ESBLs), supplied by Sichuan Primed Shines Bio-tech Co., Ltd.
3.2 Test animals: Kunming mice, age: 4 to 5 weeks, weight: 18 to 22 g, half male, half female, SPF grade.
3.3 Test methods: Mice were randomly divided into several groups, 5 mice for each group, half male and half female, and 5 doses for each test drug: 1.25, 2.5, 5, 10 and 20 mg/kg. The mice were intraperitoneally injected with 0.5 mL of […] CFU/mL bacterial suspension for each mouse, and subcutaneously injected with the drug at the designed dose 0.5 h and 4 h after infection. The subcutaneous injection volume was 0.2 ml/20 g mouse weight; the number of deaths in mice was observed and recorded for 7 consecutive days. According to the number of deaths in mice, the half effective dose ED50 was calculated according to the Bliss method using the DAS 1.0 software, edited by Sun Ruiyuan et al.

CC1(C)[C@H](NC(=O)/C(=N\OCc2cc(=O)c(O)cn2O)c2csc(N)n2)C(=O)N1OS(=O)(=O)O [BAL30072, reference compound]
Antibacterial activity MIC, Escherichia coli ATCC 35218 [1]: 0.125 µg/mL | Antibacterial activity MIC, Pseudomonas aeruginosa (4 strains) [2]: 1 to 2 µg/mL | Antibacterial activity MIC, Klebsiella pneumoniae (4 strains) [3]: ≥64 µg/mL | Antibacterial activity MIC, Escherichia coli (4 strains) [4]: 0.25 to 1 µg/mL | Antibacterial activity MIC, Acinetobacter baumannii (4 strains) [5]: 1 to 2 µg/mL | Antibacterial activity MIC, Klebsiella pneumoniae (4 strains) [6]: ≥64 µg/mL | Antibacterial activity MIC, Escherichia coli ATCC 35218 [7]: 0.06 µg/mL | Antibacterial activity MIC, Pseudomonas aeruginosa (4 strains) [8]: 2 µg/mL | Antibacterial activity MIC, Escherichia coli (4 strains) [9]: 1 µg/mL | Antibacterial activity MIC, Acinetobacter baumarmii (4 strains) [10]: 2 to 4 µg/mL | ED50 Subcutaneous injection [11]: 4.19 mg/kg
